According to US20210122730A1, “GLUCOCORTICOID RECEPTOR MODULATORS” (ORIC Pharmaceuticals, Inc., priority 2017, published 2021):

Target: T1, GR (Homo sapiens, UniProt P04150)
T1 construct: expressed in transfected cells; host or cells: CHO-K1
T1 sequence (P04150 1-777): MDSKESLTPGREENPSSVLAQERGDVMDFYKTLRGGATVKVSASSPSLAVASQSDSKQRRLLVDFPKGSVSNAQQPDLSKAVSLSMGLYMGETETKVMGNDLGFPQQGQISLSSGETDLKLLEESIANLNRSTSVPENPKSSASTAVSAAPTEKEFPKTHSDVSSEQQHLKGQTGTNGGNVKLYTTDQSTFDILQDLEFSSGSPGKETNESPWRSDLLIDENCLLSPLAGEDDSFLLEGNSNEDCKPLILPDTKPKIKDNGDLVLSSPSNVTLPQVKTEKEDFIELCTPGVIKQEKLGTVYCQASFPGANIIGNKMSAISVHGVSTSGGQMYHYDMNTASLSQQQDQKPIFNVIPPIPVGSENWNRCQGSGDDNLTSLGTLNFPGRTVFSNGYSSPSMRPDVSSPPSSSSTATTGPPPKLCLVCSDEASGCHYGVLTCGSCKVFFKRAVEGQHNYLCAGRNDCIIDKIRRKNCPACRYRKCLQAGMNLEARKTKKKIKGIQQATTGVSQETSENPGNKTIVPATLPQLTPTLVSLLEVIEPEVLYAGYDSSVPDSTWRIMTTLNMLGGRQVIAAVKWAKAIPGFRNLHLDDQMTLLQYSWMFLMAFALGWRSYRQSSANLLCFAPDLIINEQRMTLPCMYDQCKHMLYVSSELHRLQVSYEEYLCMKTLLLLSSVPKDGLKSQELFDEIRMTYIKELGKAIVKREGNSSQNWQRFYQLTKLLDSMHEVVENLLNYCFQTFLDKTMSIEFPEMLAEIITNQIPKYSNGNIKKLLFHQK
Test: In Vitro GR Luciferase Reporter Assay (antagonist mode, CHO-K1-GR-MMTV-Luc reporter cells)
Assay type: cell-based
Conditions: antagonist assay with 10 nM Dexamethasone, 18-24 hours
Excerpt: Example A: In Vitro GR Luciferase Reporter Assay
Cell Line: CHO-K1-GR-MMTV-Luc reporter cells
Culture Media: DMEM (with phenol red)+10% FBS
Assay Media: DMEM (without phenol red)+10% CSS
Culture CHO-K1I-GR-MMTV-Luc reporter cells in 15 cm plates in Culture Media at conditions less than 90% confluence.
Prepare 200×DMSO 1:5 serial dilutions of control and test compounds in 96-well non-sterile V bottom plate in DMSO, 8serial dilutions for each compound.
Prepare 5× Assay Media diluted compound serial dilutions in 96-well non-sterile V bottom plate: Add 97.5 uL/well of Assay Media into 96-well then add 2.5 ul of 200× concentration of compounds and mix well.
Seed cells for Antagonist Assay: […] CHO-K1-GR-MMTV-Luc reporter cells were seeded in a Corning 3707 flat clear bottom 384-well white TC plate in 20 ul of Assay Media containing 12.5 nM Dexamethasone (final concentration=10 nM).
Add compounds: 5 ul of assay media diluted compounds were added to appropriate wells and followed a quick spin (1000 rpm, 10 sec) to bring media and cells to the bottom of plate. The plates were covered with SealMate film to avoid evaporation and placed in 37° C. incubator for approximately 18-24 hours.
Read plates: Equilibrate appropriate amount of Promega OneGlo luciferase reagent to room temperature. Remove the plates from incubator and add 25 uL of OneGlo reagent/well by multiple channel pipette and read the plates with Tecan F500 luminometer within 3 minutes.
The ability of the compounds disclosed herein to inhibit GR activity was quantified and the respective IC50 value was determined. Table 1and Table 2provide the cellular IC50 values of compounds disclosed herein.

Compound	IC50 [nM]
O=C(c1ccccn1)[C@]12Cc3cnn(-c4ccc(F)cc4)c3C=C1CC[C@@H](S(=O)(=O)c1ccc(F)c(F)c1)C2 [Example 16, ((4aS,6R)-6-((3,4-difluorophenyl)sulfonyl)-1-(4-fluorophenyl)-1,4,5,6,7,8-hexahydro-4aH-benzo[f]indazol-4a-yl)(pyridin-2-yl)methanone]	≤ 100
O=C(c1cc(C(F)(F)F)ccn1)[C@]12Cc3cnn(-c4ccc(F)cc4)c3C=C1CC[C@@H](S(=O)(=O)c1cccc(C(F)(F)F)c1)C2 [Example 17, ((4aS,6R)-1-(4-fluorophenyl)-6-((3-(trifluoromethyl)phenyl)sulfonyl)-1,4,5,6,7,8-hexahydro-4aH-benzo[f]indazol-4a-yl)(4-(trifluoromethyl)pyridin-2-yl)methanone]	≤ 100
O=C(c1ccccn1)[C@]12Cc3cnn(-c4ccc(F)cc4)c3C=C1CC[C@@H](S(=O)(=O)c1cccc(C(F)(F)F)c1)C2 [Example 18, ((4aS,6R)-1-(4-fluorophenyl)-6-((3-(trifluoromethyl)phenyl)sulfonyl)-1,4,5,6,7,8-hexahydro-4aH-benzo[f]indazol-4a-yl)(pyridin-2-yl)methanone]	≤ 100
COc1ccc(S(=O)(=O)[C@H]2CCC3=Cc4c(cnn4-c4ccc(F)cc4)C[C@]3(C(=O)c3ccccn3)C2)cc1 [Example 19, ((4aS,6S)-1-(4-fluorophenyl)-6-((4-methoxyphenyl)sulfonyl)-1,4,5,6,7,8-hexahydro-4aH-benzo[f]indazol-4a-yl)(pyridin-2-yl)methanone]	≤ 100
O=C(c1ccccn1)[C@]12Cc3cnn(-c4ccc(F)cc4)c3C=C1CC[C@H](S(=O)(=O)c1ccccc1)C2 [Example 20, ((4aS,6S)-1-(4-fluorophenyl)-6-(phenylsulfonyl)-1,4,5,6,7,8-hexahydro-4aH-benzo[f]indazol-4a-yl)(pyridin-2-yl)methanone]	≤ 100
O=C(c1ccccn1)[C@]12Cc3cnn(-c4ccc(F)cc4)c3C=C1CC[C@H](S(=O)(=O)Cc1ccccc1)C2 [Example 21, ((4aS,6S)-6-(benzylsulfonyl)-1-(4-fluorophenyl)-1,4,5,6,7,8-hexahydro-4aH-benzo[f]indazol-4a-yl)(pyridin-2-yl)methanone]	≤ 100
O=C(c1ccccn1)[C@]12Cc3cnn(-c4ccc(F)cc4)c3C=C1CC[C@H](S(=O)(=O)c1ccc(F)c(F)c1)C2 [Example 22, ((4aS,6S)-6-((3,4-difluorophenyl)sulfonyl)-1-(4-fluorophenyl)-1,4,5,6,7,8-hexahydro-4aH-benzo[f]indazol-4a-yl)(pyridin-2-yl)methanone]	≤ 100
Cc1ccnc(C(=O)[C@]23Cc4cnn(-c5ccc(F)cc5)c4C=C2CC[C@H](S(=O)(=O)c2cnn(C)c2)C3)c1 [Example 23, ((4aS,6S)-1-(4-fluorophenyl)-6-((1-methyl-1H-pyrazol-4-yl)sulfonyl)-1,4,5,6,7,8-hexahydro-4aH-benzo[f]indazol-4a-yl)(4-methylpyridin-2-yl)methanone]	≤ 100
O=C(c1ccccn1)[C@]12Cc3cnn(-c4ccc(F)cc4)c3C=C1CC[C@@H](S(=O)(=O)c1ccccc1)C2 [Example 24, ((4aS,6R)-1-(4-fluorophenyl)-6-(phenylsulfonyl)-1,4,5,6,7,8-hexahydro-4aH-benzo[f]indazol-4a-yl)(pyridin-2-yl)methanone]	≤ 100
O=C(c1ccccn1)[C@]12Cc3cnn(-c4ccc(F)cc4)c3C=C1CC[C@H](S(=O)(=O)c1ccc(F)cc1)C2 [Example 25, ((4aS,6S)-1-(4-fluorophenyl)-6-((4-fluorophenyl)sulfonyl)-1,4,5,6,7,8-hexahydro-4aH-benzo[f]indazol-4a-yl)(pyridin-2-yl)methanone]	≤ 100
O=C(c1ccccn1)[C@]12Cc3cnn(-c4ccc(F)cc4)c3C=C1CC[C@H](S(=O)(=O)c1ccccn1)C2 [Example 26, ((4aS,6S)-1-(4-fluorophenyl)-6-(pyridin-2-ylsulfonyl)-1,4,5,6,7,8-hexahydro-4aH-benzo[f]indazol-4a-yl)(pyridin-2-yl)methanone]	≤ 100
O=C(c1cc(C(F)(F)F)ccn1)[C@]12Cc3cnn(-c4ccc(F)cc4)c3C=C1CC[C@@H](S(=O)(=O)c1cnns1)C2 [Example 27, ((4aS,6R)-6-((1,2,3-thiadiazol-5-yl)sulfonyl)-1-(4-fluorophenyl)-1,4,5,6,7,8-hexahydro-4aH-benzo[f]indazol-4a-yl)(4-(trifluoromethyl)pyridin-2-yl)methanone]	100 to 1000
O=C(c1ccccn1)[C@]12Cc3cnn(-c4ccc(F)cc4)c3C=C1CC[C@H](S(=O)(=O)c1cccc(C(F)(F)F)c1)C2 [Example 28, ((4aS,6S)-1-(4-fluorophenyl)-6-((3-(trifluoromethyl)phenyl)sulfonyl)-1,4,5,6,7,8-hexahydro-4aH-benzo[f]indazol-4a-yl)(pyridin-2-yl)methanone]	≤ 100
O=C(c1ccccn1)[C@]12Cc3cnn(-c4ccc(F)cc4)c3C=C1CC[C@@H](S(=O)(=O)c1ccc(F)cc1)C2 [Example 29, ((4aS,6R)-1-(4-fluorophenyl)-6-((4-fluorophenyl)sulfonyl)-1,4,5,6,7,8-hexahydro-4aH-benzo[f]indazol-4a-yl)(pyridin-2-yl)methanone]	100 to 1000
Cc1ccnc(C(=O)[C@]23Cc4cnn(-c5ccc(F)cc5)c4C=C2CC[C@H](S(=O)(=O)c2ccc(F)c(F)c2)C3)c1 [Example 30, ((4aS,6S)-6-((3,4-difluorophenyl)sulfonyl)-1-(4-fluorophenyl)-1,4,5,6,7,8-hexahydro-4aH-benzo[f]indazol-4a-yl)(4-methylpyridin-2-yl)methanone]	≤ 100
Cc1ccc(C(=O)[C@]23Cc4cnn(-c5ccc(F)cc5)c4C=C2CC[C@H](S(=O)(=O)c2cccc(C(F)(F)F)c2)C3)nc1 [Example 31, ((4aS,6S)-1-(4-fluorophenyl)-6-((3-(trifluoromethyl)phenyl)sulfonyl)-1,4,5,6,7,8-hexahydro-4aH-benzo[f]indazol-4a-yl)(5-methylpyridin-2-yl)methanone]	≤ 100
O=C(c1ccccn1)[C@]12Cc3cnn(-c4ccc(F)cc4)c3C=C1CC[C@H](S(=O)(=O)c1ccc(C(F)(F)F)cn1)C2 [Example 32, ((4aS,6S)-1-(4-fluorophenyl)-6-((5-(trifluoromethyl)pyridin-2-yl)sulfonyl)-1,4,5,6,7,8-hexahydro-4aH-benzo[f]indazol-4a-yl)(pyridin-2-yl)methanone]	≤ 100
Cn1ncc(S(=O)(=O)[C@H]2CCC3=Cc4c(cnn4-c4ccc(F)cc4)C[C@]3(C(=O)c3cc(C(F)(F)F)ccn3)C2)n1 [Example 33, ((4aS,6S)-1-(4-fluorophenyl)-6-((2-methyl-2H-1,2,3-triazol-4-yl)sulfonyl)-1,4,5,6,7,8-hexahydro-4aH-benzo[f]indazol-4a-yl)(4-(trifluoromethyl)pyridin-2-yl)methanone]	≤ 100
Cc1ccnc(C(=O)[C@]23Cc4cnn(-c5ccc(F)cc5)c4C=C2CC[C@H](S(=O)(=O)c2ccccn2)C3)c1 [Example 34, ((4aS,6S)-1-(4-fluorophenyl)-6-(pyridin-2-ylsulfonyl)-1,4,5,6,7,8-hexahydro-4aH-benzo[f]indazol-4a-yl)(4-methylpyridin-2-yl)methanone]	≤ 100
O=C(c1ccccn1)[C@]12Cc3cnn(-c4ccc(F)cc4)c3C=C1CC[C@H](S(=O)(=O)C1CCCCC1)C2 [Example 35, ((4aS,6S)-6-(cyclohexylsulfonyl)-1-(4-fluorophenyl)-1,4,5,6,7,8-hexahydro-4aH-benzo[f]indazol-4a-yl)(pyridin-2-yl)methanone]	≤ 100
Cc1ccnc(C(=O)[C@]23Cc4cnn(-c5ccc(F)cc5)c4C=C2CC[C@H](S(=O)(=O)c2ccccc2)C3)c1 [Example 36, ((4aS,6S)-1-(4-fluorophenyl)-6-(phenylsulfonyl)-1,4,5,6,7,8-hexahydro-4aH-benzo[f]indazol-4a-yl)(4-methylpyridin-2-yl)methanone]	≤ 100
